System: modified version of the GPR119 receptor (94% identity to human receptor)
Assay: cAMP production assay (LANCE cAMP kit, TR-FRET) in HEK-293 cells
Assay type: cell-based
Settings: for cAMP production in HEK-293 cells: HEK-293 cells stably expressing modified GPR119, test compounds 0.2 nM to 10 μM, one-hour incubation at ambient temperature; for Fold over baseline: increase in cAMP relative to basal levels, agonist activity if 1.5-fold or greater
Description: The assay utilized HEK-293 cells that stably express a modified version of the GPR119 receptor (94% identity to human receptor), under the control of a CMV promoter containing a tet-on element for tetracycline-inducible expression. GPR119 agonist-induced cyclic AMP (cAMP) production was measured in this cell line using the LANCE cAMP kit (Perkin Elmer, Waltham, Mass.). To generate a working stock of cells for the assay, cells were treated overnight with 1 μg/mL doxycycline at 37° C. in the presence of 5% CO2 to induce receptor expression. Cells were then harvested by enzymatic dissociation with 0.05% trypsin, resuspended in freezing medium (DMEM growth medium with 10% each of fetal bovine serum and DMSO), aliquoted and frozen at −80° C. On the day of the assay, frozen cells were thawed, washed 1× in PBS and resuspended in Hank's buffered salt solution (HBSS) containing 5 mM HEPES, 0.1% BSA and Alexa Fluor 647-conjugated anti-cAMP antibody (diluted 1:100). The cell suspension was then transferred to a Proxiplate Plus white 384-well assay plate (Perkin-Elmer) at 2000 cells/well. Test compounds at final concentrations ranging from 0.2 nM to 10 μM were added to the assay plate, followed by a one-hour incubation at ambient temperature (volume=10 μL/well). DMSO concentration was held constant at 0.5%. After incubation with test compounds, 10 μL of a detergent buffer containing a biotinylated cAMP/Europium-conjugated streptavidin complex (Europium-labeled cAMP tracer) were added to each well on the assay plate, followed by a 2-hour incubation at ambient temperature. During this incubation cAMP released from lysed cells competes with the Europium-labeled cAMP tracer for binding to the Alexa Fluor 647-conjugated antibody. […] Cellular cAMP levels were then determined by interpolation of raw signal data using a cAMP standard curve. Compounds were determined to have agonist activity if they stimulated a 1.5-fold or greater increase in cAMP relative to basal levels.

SMILES | cAMP production in HEK-293 cells | Fold over baseline
CCc1cnc(N2CCC(N3CCC[C@H](Nc4cc5c(cc4F)S(=O)(=O)CC5)C3=O)CC2)nc1 [Example 73, (S)-1′-(5-ethylpyrimidin-2-yl)-3-((6-fluoro-1,1-dioxido-2,3-dihydrobenzo[b]thiophen-5-yl)amino)-[1,4′-bipiperidin]-2-one] | 14.4 nmol | 3.0
CS(=O)(=O)c1cc(F)c(N[C@H]2CCCCN(C3CCN(c4cnc(Cl)cn4)CC3)C2=O)cc1F.Cl [Example 81, (S)-1-(1-(5-chloropyrazin-2-yl)piperidin-4-yl)-3-(2,5-difluoro-4-(methylsulfonyl)phenylamino)azepan-2-one hydrochloride] | 22.7 nmol | 5.0
CS(=O)(=O)c1ccc(N[C@H]2CCN(C3CCN(c4ncc(Cl)cc4C#N)CC3)C2=O)c(F)c1 [Example 116, (S)-5-chloro-2-(4-(3-(2-fluoro-4-(methylsulfonyl)phenyl-amino)-2-oxopyrrolidin-1-yl)piperidin-1-yl)nicotinonitrile] | 10.2 nmol | 2.1
CS(=O)(=O)c1cc(F)c(N[C@H]2CCN(C3CCN(c4ccc(C(F)(F)F)cn4)CC3)C2=O)cc1F [Example 100, (S)-3-(2,5-difluoro-4-(methylsulfonyl)phenylamino)-1-(1-(5-(trifluoromethyl)pyridin-2-yl)piperidin-4-yl)pyrrolidin-2-one] | 8.4 nmol | 2.6
Cc1cc(N[C@H]2CCN(C3CCN(c4ncc(Cl)cc4F)CC3)C2=O)cnc1S(C)(=O)=O [Example 120, (S)-1-(1-(5-chloro-3-fluoropyridin-2-yl)piperidin-4-yl)-3-(5-methyl-6-(methylsulfonyl)pyridin-3-ylamino) pyrrolidin-2-one] | 18.6 nmol | 3.8
CS(=O)(=O)c1ccc(N[C@H]2CCN(C3CCN(c4ncc(C(F)(F)F)cc4Cl)CC3)C2=O)cn1 [Example 119, (S)-1-(1-(3-chloro-5-(trifluoromethyl)pyridin-2-yl)piperidin-4-yl)-3-(6-(methylsulfonyl)pyridin-3-ylamino)pyrrolidin-2-one] | 16.3 nmol | 3.3
CCc1cnc(N2CCC(N3CCC[C@H](Nc4c(F)cc(S(C)(=O)=O)cc4F)C3=O)CC2)nc1 [Example 49, (S)-3-(2,6-difluoro-4-(methylsulfonyl)phen-ylamino)-1′-(5-ethylpyrimidin-2-yl)-[1,4′-bipiperidin]-2-one] | 10.6 nmol | 2.2
CS(=O)(=O)c1cc(F)c(O[C@H]2CCN(C3CCN(c4ncc(Br)cn4)CC3)C2=O)cc1F [Example 90, (S)-1-(1-(5-bromopyrimidin-2-yl)piperidin-4-yl)-3-(2,5-difluoro-4-(methylsulfonyl)phenoxy)pyrrolidin-2-one] | 11.7 nmol | 2.7
CS(=O)(=O)c1ccc(N[C@H]2CCCCN(C3CCN(c4cnc(Cl)cn4)CC3)C2=O)c(F)c1.Cl [Example 80, (S)-1-(1-(5-chloropyrazin-2-yl)piperidin-4-yl)-3-(2-fluoro-4-(methylsulfonyl)phenylamino)azepan-2-one hydrochloride] | 18.3 nmol | 3.7
CC(C)c1cnc(N2CCC(N3CCC[C@H](Nc4cc(F)c(S(C)(=O)=O)cc4F)C3=O)CC2)cn1 [Example 60, (S)-3-(2,5-difluoro-4-(methylsulfonyl)phenylamino)-1′-(5-isopropylpyrazin-2-yl)-[1,4′-bipiperidin]-2-one] | 27.4 nmol | 4.4
CC(O)c1cnc(N2CCC(N3CCC[C@H](Nc4cc(F)c(S(C)(=O)=O)cc4F)C3=O)CC2)nc1 (stereo partly drawn) [Example 64, (3S)-3-(2,5-difluoro-4-(methylsulfonyl)phenylamino)-1′-(5-(1-hydroxyethyl)pyrimidin-2-yl)-[1,4′-bipiperidin]-2-one] | 7.4 nmol | 2.0
CCc1cnc(N2CCC(N3CCC[C@H](Nc4cc(F)c(S(C)(=O)=O)cc4F)C3=O)CC2)nc1 [Example 45, (S)-3-(2,5-difluoro-4-(methylsulfonyl)phenylamino)-1′-(5-ethylpyrimidin-2-yl)-[1,4′-bipiperidin]-2-one] | 13.3 nmol | 2.3
CS(=O)(=O)c1cc(F)c(N[C@H]2CCN(C3CCN(c4ncc(C(F)(F)F)cc4F)CC3)C2=O)c(F)c1 [Example 117, (S)-3-(2,6-difluoro-4-(methylsulfonyl)phenyl-amino)-1-(1-(3-fluoro-5-(trifluoromethyl)pyridin-2-yl)piperidin-4-yl)pyrrolidin-2-one] | 31.1 nmol | 4.0
CCCc1cnc(N2CCC(N3CCC[C@H](Nc4ccc(S(C)(=O)=O)cc4F)C3=O)CC2)nc1 [Example 42, (S)-3-(2-fluoro-4-(methylsulfonyl)phenylamino)-1′-(5-propylpyrimidin-2-yl)-[1,4′-bipiperidin]-2-one] | 5.7 nmol | 2.1
N#Cc1ccc(N[C@H]2CCN(C3CCN(c4ncc(C(F)(F)F)cc4Cl)CC3)C2=O)nn1 [Example 150, (S)-6-(1-(1-(3-chloro-5-(trifluoromethyl)pyridin-2-yl)piperidin-4-yl)-2-oxopyrrolidin-3-ylamino)pyridazine-3-carbonitrile] | 17.1 nmol | 3.4
CS(=O)(=O)c1cc(F)c(N[C@H]2CCCN(C3CCN(c4ccc(C(F)(F)F)cn4)CC3)C2=O)cc1F [Example 54, (S)-3-(2,5-difluoro-4-(methylsulfonyl)phen-ylamino)-1′-(5-(trifluoromethyl)pyridin-2-yl)-[1,4′-bipiperidin]-2-one] | 7.3 nmol | 2.3
CCS(=O)(=O)c1ccc(N[C@H]2CCN(C3CCN(c4ncc(Cl)cc4C#N)CC3)C2=O)cn1 [Example 129, (S)-5-chloro-2-(4-(3-(6-(ethylsulfonyl)pyridin-3-ylamino)-2-oxopyrrolidin-1-yl)piperidin-1-yl)nicotinonitrile] | 28.4 nmol | 2.1
CS(=O)(=O)c1ccc(N[C@H]2CCN(C3CCN(c4ncc(C(F)(F)F)cc4Cl)CC3)C2=O)c(F)c1 [Example 107, (S)-1-(1-(3-chloro-5-(trifluoromethyl)pyridin-2-yl)piperidin-4-yl)-3-(2-fluoro-4-(methylsulfonyl)phenylamino)pyrrolidin-2-one] | 20.9 nmol | 3.2
CN(C)C(=O)c1ccc(O[C@H]2CCN(C3CCN(c4ncc(Cl)cc4F)CC3)C2=O)cn1 [Example 149, (S)-5-(1-(1-(5-chloro-3-fluoropyridin-2-yl)piperidin-4-yl)-2-oxopyrrolidin-3-yloxy)-N,N-dimethylpicolinamide] | 6.8 nmol | 1.5
CS(=O)(=O)c1cc(F)c(OC2CCN(C3CCN(c4ncc(-c5ccccc5)cn4)CC3)C2=O)cc1F (stereo not drawn) [Example 88, 3-(2,5-difluoro-4-(methylsulfonyl)phenoxy)-1-(1-(5-phenylpyrimidin-2-yl)piperidin-4-yl)pyrrolidin-2-one trifluoroactetate] | 9.1 nmol | 2.4
CCc1cnc(N2CCC(N3CC[C@H](Nc4cc(F)c(S(C)(=O)=O)cc4F)C3=O)CC2)nc1 [Example 5, (S)-3-(2,5-difluoro-4-(methyl-sulfonyl)phenylamino)-1-(1-(5-ethylpyrimidin-2-yl)piperidin-4-yl)pyrrolidin-2-one] | 12.3 nmol | 2.2
Cc1cc(S(C)(=O)=O)ncc1N[C@H]1CCN(C2CCN(c3cnc(Cl)cn3)CC2)C1=O [Example 123, (S)-1-(1-(5-chloropyrazin-2-yl)piperidin-4-yl)-3-(4-methyl-6-(methylsulfonyl)pyridin-3-ylamino) pyrrolidin-2-one] | 15.8 nmol | 3.5
Cc1nnc(-c2ccc(O[C@H]3CCN(C4CCN(c5ncc(Cl)cn5)CC4)C3=O)c(F)c2)o1 [Example 72, (S)-1-(1-(5-chloropyrimidin-2-yl)piperidin-4-yl)-3-(2-fluoro-4-(5-methyl-1,3,4-oxadiazol-2-yl)Phenoxy)pyrrolidin-2-one] | 7.5 nmol | 2.8
CS(=O)(=O)c1ccc(N[C@H]2CCN(C3CCN(c4ncc(Cl)cc4F)CC3)C2=O)cn1 [Example 130, (S)-1-(1-(5-chloro-3-fluoropyridin-2-yl)piperidin-4-yl)-3-(6-(methylsulfonyl)pyridin-3-ylamino)pyrrolidin-2-one] | 26.8 nmol | 3.5

From patent publication US8754226B2, “Piperidinyl-substituted lactams as GPR119 modulators” (Array BioPharma Inc., priority 2010, dated 2014)
